This is an account of results in US10961309B2, “Reducing systemic regulatory T cell levels or activity for treatment of disease and injury of the CNS” (Yeda Research and Development Co. Ltd, priority 2014, dated 2021).

Bounds are passed on as bounds.

One test relates to Foxp3+ Tregs. The test is described as follows: Conditional ablation of Treg by DTx, confirmed by flow cytometry. The class given is in vivo, mouse. Here is the method:
Mice were transcardially perfused with PBS, and tissues were treated as previously described (Baruch et al, 2013). Brains were dissected and the different brain regions were removed under a dissecting microscope (Stemi DV4; Zeiss) in PBS, and tissues were dissociated using the gentleMACS™ dissociator (Miltenyi Biotec). Choroid plexus tissues were isolated from the lateral, third and fourth ventricles of the brain, incubated at 37° C. for 45 min in PBS (with Ca^2+/Mg^2+) containing 400 U/ml collagenase type IV (Worthington Biochemical Corporation), and then manually homogenized by pipetting. Spleens were mashed with the plunger of a syringe and treated with ACK (ammonium chloride potassium) lysing buffer to remove erythrocytes. In all cases, samples were stained according to the manufacturers' protocols. All samples were filtered through a 70 μm nylon mesh, and blocked with anti-Fc CD16/32 (1:100; BD Biosciences). For intracellular staining of IFN-γ, the cells were incubated with […] (10 ng/ml; Sigma-Aldrich) and ionomycin (250 ng/ml; Sigma-Aldrich) for 6 h, and Brefeldin-A (10 μg/ml; Sigma-Aldrich) was added for the last 4 h. Intracellular labeling of cytokines was done with BD Cytofix/Cytoperm™ Plus fixation/permeabilization kit (cat. no. 555028). […] Cells were analyzed on an LSRII cytometer (BD Biosciences) using FlowJo software. […]

Test [1] relates to soluble Aβ1-40 and Aβ1-42. Nature of the test: Soluble Aβ (sAβ) protein quantification by ELISA. As to conditions: 3 weeks after 1 week ATRA treatment, AD-Tg mice. The class given is in vivo, mouse. Here is the method:
Tissue homogenization and sAβ protein extraction was performed as previously described (Schmidt et al, 2005). Briefly, cerebral brain parenchyma was dissected and snap-frozen and kept at −80° C. until homogenization. Proteins were sequentially extracted from samples to obtain separate fractions containing proteins of differing solubility. Samples were homogenized in 10 volumes of ice-cold tissue homogenization buffer, containing 250 mM of sucrose, 20 mM of Tris base, 1 mM of ethylenediaminetetraacetic acid (EDTA), and 1 mM of ethylene glycol tetraacetic acid (pH 7.4), using a ground glass pestle in a Dounce homogenizer. After six strokes, the homogenate was mixed 1:1 with 0.4% diethylamine (DEA) in a 100-mM NaCl solution before an additional six strokes, and then centrifuged at 135,000 g at 4° C. for 45 min. The supernatant (DEA-soluble fraction containing extracellular and cytosolic proteins) was collected and neutralized with 10% of 0.5M of Tris-HCl (pH 6.8). Aβ1-40 and Aβ1-42 were individually measured by enzyme-linked immunosorbent assay (ELISA) from the soluble fraction using commercially available kits (Biolegend; #SIG-38954 and #SIG-38956, respectively) according to the manufacturer instructions.

With Diphtheria toxin [DTx], in the test on Foxp3+ Tregs (blood and spleen, Foxp3.LuciDTR mice, DTx 8 ng/g i.p. daily 4 consecutive days), the “depletion of the GFP-expressing FoxP3+ CD4+ Treg cells” value is reported as greater than 99%. Besides, the “depletion of Foxp3+ cells” value with Foxp3+ Tregs (splenocytes from AD-Tg/Foxp3-DTR+/− mice, 1 day after last injection, DTx i.p. 4 days) is roughly 99%. As for `CC1=C(/C=C/C(C)=C/C=C/C(C)=C/C(=O)O)C(C)(C)CCC1` [ATRA, All-trans retinoic acid], the “cerebral sAβ1-40 and sAβ1-42 levels” value in test [1] is “increased”.
